Test results as given in US8466139B2, “Formulation” (AstraZeneca AB, priority 2000, dated 2013).

Key:
[1] = Dissipation of 14C labelled benzyl alcohol from the injection site; format: in vivo
From the text: This finding is indeed surprising for the following reasons. • 1. […] It is believed that the tissue irritation/inflammation was due to the presence of fulvestrant in the form of solid particles. The release profile appeared to be determined by the extent of inflammation/irritation present at the injection site and this was variable and difficult to control.

[2] = Solubility of fulvestrant in different solvents; format: physicochemical; conditions: Water, 25° C.
[3] = test system: human breast cancer cells; conditions: block of oestradiol-stimulated growth, human breast cancer cells in vitro; cited from earlier work
uterus = conditions: intact adult rats, cited from earlier work

time to removal from the body after administration [1]	SOLUBILITY [2]	Compound	potency and effectiveness compared with tamoxifen [3]	effect on bone density (uterus; at dose giving maximum regression of the uterus)	regression of the uterus (uterus)
≤ 24 h		OCc1ccccc1 [^14C labelled benzyl alcohol, benzyl alcohol]			
	0.001 mgml^−1	C[C@]12CC[C@@H]3c4ccc(O)cc4C[C@@H](CCCCCCCCC[S+]([O-])CCCC(F)(F)C(F)(F)F)[C@H]3[C@@H]1CC[C@@H]2O (stereo partly drawn) [fulvestrant, 7α-[9-(4,4,5,5,5-Pentafluoropentylsulphinyl)nonyl]oestra-1,3-5(10)-triene-3,17β-diol]	more potent and more effective than tamoxifen	does not adversely affect	maximum regression
